We go through 32 molecules from article PMC8286840, “Identifying SARS-CoV-2 antiviral compounds by screening for small molecule inhibitors of Nsp3 papain-like protease” (Biochemical Journal, 2021).

For experiment [1], the target named is T1, SARS-CoV-2 PLpro (nsp3 1564–1878) (Severe acute respiratory syndrome coronavirus 2, UniProt P0DTD1). As to the kind of experiment: biochemical. The following applies: high concentration screen, read-out: % of control remaining. More on the design: FRET-quenched peptide (Pro3) cleavage by PLpro, 10 min pre-incubation, slope over 20 min, normalised to no-compound control.

The target of experiment [2] is T1, SARS-CoV-2 PLpro (nsp3 1564–1878). The experiment can be described thus: biochemical. More on the design: FRET-quenched peptide (Pro3) cleavage by PLpro, 10 min pre-incubation, slope over 20 min, normalised to no-compound control. The following applies: low concentration screen, read-out: % of control remaining.

Where a name gives a salt, the structure may show the parent alone. Read-outs that look alike come from different tables or passages of the source.

As for `COCCOc1ccc2c(c1)ncn2-c1ccc2cccc(N3CCC(N)CC3)c2n1` [CP 673451], in experiment [1] (Well no.=5285), the remaining activity at 3.75 µM was 102%. Besides, the remaining activity at 1.25 µM in experiment [2] (Well no.=5285) was found to be 97.9%.
Take `C[C@@H]([C@@H](O)c1ccc(O)cc1)N1CCC(O)(c2ccccc2)CC1` [CP-101,606]: the remaining activity at 3.75 µM in experiment [1] (Well no.=5843) came to 93.1%. The remaining activity at 1.25 µM in experiment [2] (Well no.=5843) worked out at 94.8%.
Take `Nc1nc2ccc(Cl)cc2n2c(-c3ccccc3)nnc12` [CP-66713]: in experiment [1] (Well no.=5624), the remaining activity at 3.75 µM turned out to be 96%. Also, in experiment [2] (Well no.=5624), the remaining activity at 1.25 µM is 96.6%.
Take `CN(C)C(=O)[C@H](O)[C@H](Cc1ccccc1)NC(=O)c1cc2cc(Cl)ccc2[nH]1` [CP-91149]: the remaining activity at 3.75 µM in experiment [1] (Well no.=5021) was 104%. Moreover, in experiment [2] (Well no.=5021), the remaining activity at 1.25 µM was 101%.
Turning to `COc1ccccc1CN[C@H]1C2CCN(CC2)[C@H]1C(c1ccccc1)c1ccccc1` [CP-96345], the remaining activity at 3.75 µM in experiment [1] (Well no.=5867) is 96.7%. Besides, the remaining activity at 1.25 µM in experiment [2] (Well no.=5867) was 97.7%.
`C[C@@H]([C@@H](O)c1ccc(O)cc1)N1CCC(O)(c2ccccc2)CC1` [CP-101606 mesylate]: in experiment [1] (Well no.=5955), the remaining activity at 3.75 µM came to 98.9%. The remaining activity at 1.25 µM in experiment [2] (Well no.=5955) came to 98.1%.
Take `COc1cc2ncnc(-n3nc(-c4ccccn4)nc3N)c2cc1OC` [CP-466722]: the remaining activity at 3.75 µM in experiment [1] (Well no.=5158) turned out to be 101%. The remaining activity at 1.25 µM in experiment [2] (Well no.=5158) was 103%.
As for `COCC(=O)NC/C=C/c1ccc2ncnc(Nc3ccc(Oc4ccc(C)nc4)c(C)c3)c2c1` [CP-724714], in experiment [1] (Well no.=2837), the remaining activity at 3.75 µM amounted to 103%. For the same molecule, in experiment [2] (Well no.=2837), the remaining activity at 1.25 µM was 103%.
For the molecule `Clc1cccc(COc2cncc(N3CCNCC3)n2)c1` [CP-809101 (hydrochloride)], in experiment [1] (Well no.=7851), the remaining activity at 3.75 µM amounted to 83.3%. In experiment [2] (Well no.=7851), the remaining activity at 1.25 µM came to 95.1%.
Take `Cc1sc2c(c1C)C(c1ccc(Cl)cc1)=N[C@@H](CC(N)=O)c1nnc(C)n1-2` [CPI203]: the remaining activity at 3.75 µM in experiment [1] (Well no.=5824) came out at 98%. For the same molecule, the remaining activity at 1.25 µM in experiment [2] (Well no.=5824) was 99.9%.
`Cc1ccc(-c2nc(N)nc3c2nnn3Cc2cccc(CO[C@H]3CCOC3)n2)o1` [CPI-444]: the remaining activity at 3.75 µM in experiment [1] (Well no.=8549) stood at 97%. Also, the remaining activity at 1.25 µM in experiment [2] (Well no.=8549) was 105%.
Turning to `O=C(O)CCCCC(CCSCc1ccccc1)SCc1ccccc1` (stereo not drawn) [CPI-613], in experiment [1] (Well no.=5083), the remaining activity at 3.75 µM is 88.8%. The remaining activity at 1.25 µM in experiment [2] (Well no.=5083) stood at 97.7%.
As to `O=C(Nc1ccc(Cl)cc1CN1C(=O)c2ccccc2C1=O)c1ccccc1O` [CPPHA], the remaining activity at 3.75 µM in experiment [1] (Well no.=7243) is 97.3%. The remaining activity at 1.25 µM in experiment [2] (Well no.=7243) was 101%.
Turning to `CC[C@@H](CO)Nc1nc(NCc2ccc(-c3ccccn3)cc2)c2ncn(C(C)C)c2n1` [CR8, (S)-Isomer], the remaining activity at 3.75 µM in experiment [1] (Well no.=2343) was determined as 102%. In addition, in experiment [2] (Well no.=2343), the remaining activity at 1.25 µM turned out to be 103%.
Turning to `CC1(C)CCC(NC(=O)[C@@H](N)CCC(=O)O)CC1` [CR 2249], in experiment [1] (Well no.=901), the remaining activity at 3.75 µM worked out at 105%. Further, in experiment [2] (Well no.=901), the remaining activity at 1.25 µM was 108%.
Regarding `Cc1cc(C)c(NC(=O)C[C@H](CC(=O)O)c2cccc3ccccc23)c(C(=O)N2CCC3(CCCC3)CC2)c1` [CR 2945], the remaining activity at 3.75 µM in experiment [1] (Well no.=1111) turned out to be 98.1%. The remaining activity at 1.25 µM in experiment [2] (Well no.=1111) was determined as 105%.
Turning to `CC[C@@H](N)CNc1ccnc(-c2cc(-c3cnn(C)c3)ccc2O)n1` [CRT0066101 dihydrochloride], in experiment [1] (Well no.=6498), the remaining activity at 3.75 µM turned out to be 90.1%. The remaining activity at 1.25 µM in experiment [2] (Well no.=6498) was found to be 89.1%.
With `C#Cc1cccc(Nc2ncnc3cc(OC)c(OCCCCCCC(=O)NO)cc23)c1` [CUDC-101], the remaining activity at 3.75 µM in experiment [1] (Well no.=5097) turned out to be 108%. The remaining activity at 1.25 µM in experiment [2] (Well no.=5097) was determined as 104%.
Take `CN[C@@H](C)C(=O)N[C@H](C(=O)N1CCC[C@H]1C(=O)Nc1sc(-c2ncco2)nc1-c1ccccc1)C1CCCCC1` [CUDC-427]: in experiment [1] (Well no.=7062), the remaining activity at 3.75 µM turned out to be 92.1%. Further, the remaining activity at 1.25 µM in experiment [2] (Well no.=7062) amounted to 99.8%.
Take `CS(=O)(=O)Nc1ccc(-c2coc3cc(OCc4cccc(C(=O)O)c4)ccc3c2=O)cc1` [CVT-10216]: the remaining activity at 3.75 µM in experiment [1] (Well no.=5513) was determined as 108%. Further, in experiment [2] (Well no.=5513), the remaining activity at 1.25 µM worked out at 105%.
On to `O=C(c1ccc2c(c1)OCCO2)N1CCCCC1` [CX 546], for which the remaining activity at 3.75 µM in experiment [1] (Well no.=729) is 99.5%. In addition, the remaining activity at 1.25 µM in experiment [2] (Well no.=729) was 103%.
For the molecule `Cc1cnc(CNC(=O)c2c(=O)c3ccc(N4CCCN(C)CC4)nc3n3c2sc2ccccc23)cn1` [CX-5461], in experiment [1] (Well no.=5340), the remaining activity at 3.75 µM came to 102%. The remaining activity at 1.25 µM in experiment [2] (Well no.=5340) was found to be 99.1%.
`CN1CCC(S(=O)(=O)c2c(Cl)ccc(NC(=O)Nc3cccc(F)c3Cl)c2O)CC1` [CXCR2-IN-1]: the remaining activity at 3.75 µM in experiment [1] (Well no.=8705) turned out to be 98.8%. The remaining activity at 1.25 µM in experiment [2] (Well no.=8705) was 100%.
`CCc1ccn2ccnc2c1N1CCCN([C@@H](CC(N)=O)C2CCN(C(=O)[C@H]3C[C@@H]4CC[C@H]3O4)CC2)CC1` [CXCR7 modulator 2]: the remaining activity at 3.75 µM in experiment [1] (Well no.=8557) was 108%. Also, the remaining activity at 1.25 µM in experiment [2] (Well no.=8557) is 112%.
With `Cc1nc(N)sc1-c1ccnc(Nc2ccc(N3CCOCC3)cc2)n1` [CYC-116], the remaining activity at 3.75 µM in experiment [1] (Well no.=2885) came out at 101%. The remaining activity at 1.25 µM in experiment [2] (Well no.=2885) was determined as 103%.
Regarding `O=C(c1cc(C2CC2)on1)N(C1CCCCC1)C1CCCCC1` [CYM-5541], the remaining activity at 3.75 µM in experiment [1] (Well no.=6224) amounted to 94.5%. Besides, in experiment [2] (Well no.=6224), the remaining activity at 1.25 µM was 97.7%.
Consider `Cc1ccc(-c2c(-c3nn(C)c4ncnc(N5CC[C@H](N6CCCCC6)C5)c34)cnn2C)cc1` [CYP3cide], for which the remaining activity at 3.75 µM in experiment [1] (Well no.=5646) stood at 91.1%. Further, the remaining activity at 1.25 µM in experiment [2] (Well no.=5646) amounted to 95.6%.
`N#CCNC(=O)c1ccc(-c2ccnc(Nc3ccc(N4CCOCC4)cc3)n2)cc1` [CYT11387]: the remaining activity at 3.75 µM in experiment [1] (Well no.=2753) amounted to 99.6%. For the same molecule, the remaining activity at 1.25 µM in experiment [2] (Well no.=2753) was 98.6%.
Turning to `CO[C@H]1C(=O)[C@]2(C)[C@@H](OC)C[C@H]3OC[C@@]3(OC(C)=O)[C@H]2[C@H](OC(=O)c2ccccc2)[C@]2(O)C[C@H](OC(=O)[C@H](O)[C@@H](NC(=O)OC(C)(C)C)c3ccccc3)C(C)=C1C2(C)C` [Cabazitaxel (Jevtana)], in experiment [1] (Well no.=5263), the remaining activity at 3.75 µM is 92.6%. For the same molecule, in experiment [2] (Well no.=5263), the remaining activity at 1.25 µM stood at 95.3%.
Take `C=CCN1C[C@H](C(=O)N(CCCN(C)C)C(=O)NCC)C[C@@H]2c3cccc4[nH]cc(c34)C[C@H]21` [Cabergoline]: the remaining activity at 3.75 µM worked out at 105% in experiment [1] (Well no.=1929) and 96.6% in experiment [1] (Well no.=7179). Further, the results for the remaining activity at 1.25 µM in experiment [2] (Well no.=1929) and in experiment [2] (Well no.=7179) were 105% and 94.5%, respectively.
Consider `CC(=O)OC[C@@]1(O)C[C@@]23CC[C@@H]4c5ccoc5CC[C@@]4(C)[C@@H]2CC[C@@H]1C3` [Cafestol acetate], for which the remaining activity at 3.75 µM in experiment [1] (Well no.=3525) worked out at 103%. The remaining activity at 1.25 µM in experiment [2] (Well no.=3525) came to 96.8%.
On to `C[C@@]12CCc3occc3[C@H]1CC[C@@]13C[C@@H](CC[C@H]12)[C@@](O)(CO)C3` [Cafestol], for which the remaining activity at 3.75 µM in experiment [1] (Well no.=3523) came to 96.8%. Further, the remaining activity at 1.25 µM in experiment [2] (Well no.=3523) was found to be 102%.
